Our source for the absorption maximum values is the Deep4Chem optical property database.

SMILES strings stand for the structures.

The data set is described as follows: solvent given as SMILES.

Compound `Cc1cc(C)c(N(c2ccccc2)c2ccc(S(=O)(=O)c3ccc(S(=O)(=O)c4ccc(N(c5ccccc5)c5c(C)cc(C)cc5C)cc4)cc3)cc2)c(C)c1` had an absorption maximum (in Cc1ccccc1) of 351 nm.

For the compound `CC(=O)c1c2c(cc3cc(N(C)C)ccc13)CCC2`, the absorption maximum is, setting by setting: (in C1CCCCC1) 363 nm; (in C1CCOC1) 370 nm; (in C1COCCO1) 370 nm; (in CC#N) 370 nm; (in CCO) 374 nm; (in CS(C)=O) 374 nm. The compound further displayed an absorption maximum (in Cc1ccccc1) of 368 nm, an absorption maximum (in ClC(Cl)Cl) of 373 nm and an absorption maximum (in ClCCl) of 372 nm.

In turn, `CCCCCCCCCCCCOc1cc2c3c(ccc4c5c(SCCCCCCCCCCCC)cc6c7c(ccc(c1c34)c75)C(=O)N(C1CCCCC1)C6=O)C(=O)N(C1CCCCC1)C2=O` gave an absorption maximum (in ClC(Cl)Cl) of 568 nm.

Turning to `CCCCCCCCC1(CCCCCCCC)c2cc(C=O)ccc2-c2ccc(/C=C/c3ccc(N(c4ccccc4)c4ccccc4)cc3)cc21`, the absorption maximum runs as follows: (in C1CCOC1) 406 nm; (in C1COCCO1) 411 nm; (in CC#N) 406 nm; (in CC(C)=O) 409 nm; (in CCCCCC) 405 nm; (in CCOC(C)=O) 409 nm. Also, the absorption maximum came to 410 nm (in CN(C)C=O); 408 nm (in CS(C)=O); 411 nm (in Cc1ccccc1); 409 nm (in ClC(Cl)Cl); 411 nm (in ClCCl).

Regarding `COc1c(-c2c(OC)c3cccc4ccc5oc(=O)cc2c5c43)c2cc(=O)oc3ccc4cccc1c4c32`, the absorption maximum (in CC1CCCO1) is listed as 476 nm.

In turn, `CCCCCCCCN1C(=O)c2ccc3c4c(-c5ccc6c(c5)c5ccccc5n6-c5ccccc5)cc5c6c(ccc(c7c(-c8ccc9c(c8)c8ccccc8n9-c8ccccc8)cc(c2c37)C1=O)c64)C(=O)N(CCCCCCCC)C5=O` registered an absorption maximum (in ClC(Cl)Cl) of 609 nm.

On to `c1cc(-c2ccc3c(c2)CCCO3)ccc1-c1ccc2c(c1)CCCO2`, for which, for the setting “in C1CCCCC1”, the absorption maximum came out at 295 nm.

Where the note is “in O”, `CC[n+]1c(-c2ccccc2)c2cc(NC(=O)NCC[NH3+])ccc2c2ccc(NC(=O)NCC[NH3+])cc21` had an absorption maximum of 438 nm.

In the case of `c1ccc(-c2nc(-c3ccccc3)nc(-c3ccc(-n4c5ccccc5c5cc(-n6c7ccccc7c7ccccc76)ccc54)c4c5ccccc5n(-c5ccccc5)c34)n2)cc1`, the absorption maximum (in Cc1ccccc1) was found to be 378.07 nm.

Turning to `COc1cc2c(cc1F)c(=O)c1cc(F)c(OC)cc1n2-c1ccccc1`, the absorption maximum (in CCO) was found to be 378 nm.

`CCOC(=O)c1cc(C(=O)OCC)c2cccc(OCc3ccccc3)c2n1` had an absorption maximum (in CCO) of 366 nm.

Turning to `CN(C)c1nc(N)c2nc(C#N)n(Cc3ccccc3)c2n1`, the absorption maximum is listed as 339 nm (in C1COCCO1), 338 nm (in CC#N), 338 nm (in CO) and 336 nm (in ClCCl).

With `c1ccc(-c2nc(-c3ccccc3)nc(-c3ccc(-n4c5ccccc5c5c4c4ccccc4n5-c4ccccc4)cc3)n2)cc1`, the absorption maximum (in Cc1ccccc1) was found to be 398 nm.

Compound `CN(C)c1ccc2c(-c3ccc(Br)cc3)c3ccc(=[N+](C)C)cc-3oc2c1` had an absorption maximum (in CCO) of 556 nm.

In turn, `c1ccc(-n2c3ccccc3c3cc(-n4ccc5cc(-c6cccc7c6-c6ccccc6C7(c6ccccc6)c6ccccc6)ccc54)ccc32)cc1` had an absorption maximum (in ClCCl) of 325 nm.

On to `C[Si](C)(C)c1ccc(-c2ccc(-c3ccc(-c4ccc(-c5ccc([Si](C)(C)C)s5)s4)c4nsnc34)s2)s1`, for which, under “in C1CCOC1”, the absorption maximum is listed as 513 nm.

Take `N#CC1=CC=CC(C#N)=P1(c1ccccc1)c1ccccc1`: the absorption maximum (in ClC(Cl)Cl) worked out at 458 nm.

`O=C([O-])c1ccc(C2=c3cc4c5c(c3Oc3c2cc2c6c3CCCN6CCC2)CCC[N+]=5CCC4)c(C(=O)[O-])c1`: the absorption maximum reads like this: (in CCO) 573 nm; (in O) 574 nm.

`CC(C)=CCN1C(=O)c2cccc3c2c(cc2oc(C)nc23)C1=O`: the absorption maximum (in CCO) came to 362 nm.

For the setting “in ClCCl”, `F[B-]1(F)n2c(-c3ccccc3)c3ccc4ccccc4c3c2N=C2c3c(ccc4ccccc34)C(c3ccccc3)=[N+]21` yielded an absorption maximum of 737 nm.

With `CCOC(=O)c1c(NC(C)(C)C)oc(-c2ccc(-c3ccccc3)cc2)c1C(=O)OCC`, for the setting “in CC#N”, the absorption maximum was 355 nm.

Turning to `COc1cc2oc(=O)c3c4ccc(N(C)C)cc4c4ccc5cccc6c(c1)c2c3c4c56`, the absorption maximum (in C1CCOC1) worked out at 480 nm.

Regarding `CC(C)(C)Nc1cc2sc3cc(NC(C)(C)C)c(F)cc3c(=O)c2cc1F`, the absorption maximum (in CCO) is on record as 373 nm.

Regarding `CCc1c(C)c2n(c1C)[B-](F)(F)[N+]1=C(c3ccc[nH]3)c3ccccc3C1=C2`, the absorption maximum is, setting by setting: (in C1CCOC1) 613 nm; (in CC#N) 608 nm; (in CCCCCC) 614 nm; (in CO) 609 nm; (in Cc1ccccc1) 620 nm; (in ClCCl) 616 nm.

As to `COc1ccc(C2=C3C(C)=CC(C)=[N+]3[B-](F)(F)n3c(C)cc(C)c32)cc1`, the absorption maximum (in Cc1ccccc1) is recorded as 504 nm.

Turning to `COc1ccc2c3c(OC)c4ccccc4c(OC)c3n(C)c2c1`, the absorption maximum by setting is: (in C1CCCCC1) 392 nm; (in CC#N) 393 nm; (in CO) 392 nm; (in ClCCl) 396 nm.

Where the note is “in ClC(Cl)Cl”, `CCCCN1C(=O)c2ccc3c4ccc5c6c(ccc(c7ccc(c2c37)C1=O)c64)C(=O)N(CCCC)C5=O` showed an absorption maximum of 526 nm.

In turn, `N#C/C(=C\c1ccc(Cl)cc1)c1nc(-c2ccccc2)c(-c2ccccc2)s1` returned an absorption maximum (in CC#N) of 365 nm.

For the compound `F[B-]1(F)n2c(c(-c3cccs3)c3c2-c2ccccc2CC3)C=C2C(c3cccs3)=C3CCc4ccccc4C3=[N+]21`, under “in CC#N”, the absorption maximum is 636 nm.

On to `COC(=O)/C=C/C1=CC2=C(c3c(C)cc(C)cc3C)c3cc(/C=C/C(=O)OC)cn3[B-](F)(F)[N+]2=C1`, for which the absorption maximum (in ClCCl) came out at 577 nm.

As to `O=C1OC(=O)c2cc(Oc3ccccc3)c3c4ccc5c6c(cc(Oc7ccccc7)c(c7ccc1c2c73)c64)C(=O)OC5=O`, the absorption maximum by setting is: (in C1CCOC1) 516 nm; (in CN1CCCC1=O) 529 nm; (in CN(C)C=O) 530 nm.

For `c1cc(N2CCCC2)ccn1`, the absorption maximum is, setting by setting: (in CC1CCCCC1) 293 nm; (in CC#N) 285 nm; (in CCCCCCC) 293 nm; (in CCO) 286 nm; (in CN(C)C=O) 284 nm; (in ClC(Cl)Cl) 285 nm. The absorption maximum (in O) came out at 280 nm.

For `NCCCCCCCCCCCCN1C(=O)c2ccc3c4ccc5c6c(ccc(c7ccc(c2c37)C1=O)c64)C(=O)N(c1ccc(O)cc1)C5=O`, the absorption maximum (in CN(C)C=O) is given as 525 nm.

`N#Cc1c(N2CCCC2)cc(-c2ccccc2)c2c1C(=O)c1ccccc1-2` came in with an absorption maximum (in C1CCOC1) of 358 nm.

`COc1ccc(C#Cc2c3cc4ccccc4cc3c(C#C[Si](C(C)C)(C(C)C)C(C)C)c3cc4ccccc4cc23)cc1` returned an absorption maximum (in ClCCl) of 655 nm.

For the compound `CC(C)(C)C1CCC(=CS/C=C/c2ccc(/C=C/SC=C3CCC(C(C)(C)C)CC3)cc2)CC1` (stereo not given), for the setting “in ClCCl”, the absorption maximum is given as 351 nm.

Regarding `COc1c2ccccc2c(OC)c2c1c1c(F)cccc1n2C`, the absorption maximum (in C1CCCCC1) came to 403 nm, the absorption maximum (in CC#N) worked out at 405 nm, the absorption maximum (in CO) is 404 nm and the absorption maximum (in ClCCl) was 406 nm.

Regarding `CN(C)c1ccc(-c2cc(-c3ccc(N(C)C)cc3)ncn2)cc1`, the absorption maximum (in ClCCl) came to 378 nm.

On to `CCOC(=O)COc1ccc(/C=C/C2=C3c4ccccc4C(c4ccc[nH]4)=[N+]3[B-](F)(F)n3ccc(C)c32)cc1`, for which the absorption maximum is, setting by setting: (in C1CCOC1) 586 nm; (in CC#N) 577 nm; (in CCCCCC) 587 nm; (in CO) 580 nm; (in Cc1ccccc1) 592 nm; (in ClCCl) 585 nm.

Take `CC(C)(C)NC(=O)c1ccc(-c2cc3ccccc3s2)c2ccc3c4ccccc4c4ccccc4c3c12`: the absorption maximum (in ClCCl) is 350 nm.

As to `N#CC1=C(N)n2c(=O)c3ccccc3c(=O)n2C1c1ccccc1` (stereo not given), the absorption maximum (in CS(C)=O) is given as 360 nm.

With `CCn1ncc2c3c(C#N)c4c5ccccc5n(C)c4nc3ccc21`, the absorption maximum (in CCOC(C)=O) stood at 383 nm.

In turn, `Cc1ccc(-c2nc(-c3cccc(C#N)c3)[nH]c2-c2ccc(C)cc2)cc1` gave an absorption maximum (in CO) of 315 nm.

`CCCCCOc1cc2oc(=O)c3c4ccc(N)cc4c4ccc5cccc6c(c1)c2c3c4c56` gave an absorption maximum (in C1CCOC1) of 471 nm.

The compound `O=C1CC(c2ccc(C(F)(F)F)cc2)c2c(c3ccccc3c3nc4ccccc4nc23)O1` (stereo not given) showed an absorption maximum (in ClC(Cl)Cl) of 409 nm.

For `C(#Cc1ccccc1)C(C#Cc1ccccc1)=c1c2ccccc2c(=C(C#Cc2ccccc2)C#Cc2ccccc2)c2ccccc12`, the absorption maximum (in ClC(Cl)Cl) came out at 540 nm.

For `C[Si](C)(C)C#Cc1c2c(=O)c3ccccc3c2c(C#C[Si](C)(C)C)c2c(=O)c3ccccc3c12`, the absorption maximum (in ClC(Cl)Cl) is listed as 524 nm.

`CN(C)c1ccc2c(c1)[Si](C)(C)C1=CC(=[N+](C)C)C=CC1=C2C#Cc1ccccc1`: the absorption maximum amounted to 712 nm (in CO) and 712 nm (in O).

In the case of `COc1ccc(-n2c3ccccc3c3cc(/C=C/C(=C(C#N)C#N)c4ccccc4)ccc32)cc1`, the absorption maximum runs as follows: (in C1CCOC1) 448 nm; (in CC#N) 444 nm; (in CC(C)=O) 445 nm; (in CCOC(C)=O) 443 nm; (in CO) 449 nm; (in CS(C)=O) 454 nm. Further, the absorption maximum is, setting by setting: (in Cc1ccccc1) 450 nm; (in ClC(Cl)Cl) 459 nm.

On to `CCCn1c2cccc3oc4cccc5c4[c+](c32)c2c1cccc2n5CCC`, for which, for the setting “in CC#N”, the absorption maximum is listed as 557 nm.

With `CCC12C(=C3C(=C4c5ccc(-c6ccc(C(C)=O)s6)cc5S(=O)(=O)C41CC)C(F)(F)C(F)(F)C3(F)F)c1ccc(-c3ccc(C(C)=O)s3)cc1S2(=O)=O` (stereo not given), the absorption maximum (in C1COCCO1) is 485 nm.
